The values below come from patent US20120270251A1, “INHIBITION OF THE ACTIVITY OF KINASE AND SYNTHETASE ENZYMES” (CSIR, priority 2009, published 2012).

The structures appear in SMILES notation. Read-outs that look alike come from different tables or passages of the source.

Common to all, as to format: biochemical
In assay [1] the target is T1, AK1 (Homo sapiens, UniProt P00568).
T1 sequence (P00568 1-194): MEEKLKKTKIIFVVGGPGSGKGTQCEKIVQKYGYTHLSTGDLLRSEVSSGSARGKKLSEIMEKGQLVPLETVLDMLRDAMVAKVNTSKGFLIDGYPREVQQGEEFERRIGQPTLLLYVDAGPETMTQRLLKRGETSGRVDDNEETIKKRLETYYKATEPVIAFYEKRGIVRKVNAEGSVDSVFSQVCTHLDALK
Kind of assay: Effect of ATPS and C8-D ATPS on synthesis of ADP by AK1. Conditions: 0.2-1.0 mM, 0.6 mM ATP, 0.6 mM AMP, pH 7.2. As to the method: Increasing concentrations of ATPS or C8-D ATPS were added; 0.2, 0.4, 0.6, 0.8, and 1.0 mM. Assays, in a final volume of 1 ml, were allowed to proceed for 45 mins at 37° C., before 6 μl 100% TCA was added to stop the reaction. […] The assay where no ATPS or C8-D ATPS was added produced 0.19 mM ADP.

Assay [2] concerns the target T1, AK1. As to the kind of experiment: AK1 enzyme activity with ATP versus deuterated ATP. As to the method:
The assay is carried out in the presence of ATP and AMP measuring the formation of ADP. […] A kinetic isotope effect is also obtained when comparing the activity of the enzyme when the reaction is carried out in the presence of AMP and deuterated AMP. A further KIE is obtained when both deuterated ATP and deuterated AMP are used in the reaction. […] The KIE is obtained by dividing the activity of the enzyme in the presence of the proteated species (vH) by the enzyme activity in the presence of the deuterated species (vD) and is vH/vD=0.5. […] The proposed basic reaction mechanisms by which all forms of kinase are regulated occurs via either the formation of an immonium species at N7, which in turn induces the formation of a carbene at C8 or via the delocalization of electrons away from the C8 rendering the C8 more acidic. An immonium species may be induced at N7 by (1) protonation via a coordinated HCO3^−, (2) carboxylation of the N7, or (3) the coordination of an amino acid side chain within the active site such as a arginine, glutamine, lysine or histidine. The different forms of regulation are then based on the mechanism by which the carbene formed at C8 is stabilized and the mechanism by which the C8-H is deprotonated or via the interaction of the protein coordinated amino acid side chains affecting the delocalization of electrons around the adenyl ring of the nucleotide.

Assay [3] relates to Saccharomyces cerevisiae hexokinase. Kind of assay: Hexokinase steady-state kinetics, ATP vs C8D-ATP.
Assay [4] deals with T2, Escherichia coli acetate kinase (Escherichia coli, UniProt P0A6A3).
T2 construct: purchased Sigma A7437
As to the kind of experiment: Acetate kinase steady-state kinetics, ATP vs C8D-ATP. The source says: Hexokinase from Saccharomyces cerevisiae Type F-300 (Sigma, H4502) and Acetate kinase from E. coli (Sigma, A7437) were purchased. The human adenylate kinase (AK1) gene in vector pLIG-SC1 was obtained from the Structural Genomics Consortium (code AK1A). The His-tagged AK1 was produced in Escherichia coli Origami (DE3) and purified using the Bio-Rad Profinia Purification System. […] The Mycobacterium tuberculosis shikimate kinase gene in pET15b (Novagen) was obtained from the group of Chris Abell, Cambridge University, UK. The his-tagged MtSK was produced in E. coli BL21 (DE3) and purified using the Bio-Rad Profinia Purification System. The pure protein was dialysed against 50 mM Tris (pH 7.5) and 1,000 mM NaCl. Adenylylated (GS12) and deadenylylated (GS0) glutamine synthetase were prepared as outlined below.
The assay was incubated at 30° C. for 30 minutes and stopped by the addition of 1 μl of 50% TCA. The formation of ADP was analysed by HPLC.
The results are reflected in FIGS. 19 to 25. […] The best-fit to the data was obtained for the specified kinetic model using the non-linear regression algorithms as outlined using the GraphPad Prism® 5 software. […] These response curves were then used to define the KIE by the conventional estimation of KIE from KIE=vH/vD. The KIED was also determined using the following function: […]

Assay [5] deals with Escherichia coli deadenylylated glutamine synthetase (GS0) (Escherichia coli, UniProt P0A9C5). The following applies: for Hill factor (h): allosteric sigmoidal model.
Assay [6] addresses B. stearothermophilus phosphofructokinase (Geobacillus stearothermophilus, UniProt P00512). Conditions: for Hill factor (h): allosteric sigmoidal model.
The target of assay [7] is Escherichia coli adenylylated glutamine synthetase (GS12) (Escherichia coli, UniProt P0A9C5). The following applies: for Hill factor (h): allosteric sigmoidal model.
[8] abbreviates: tested model: Allosteric sigmoidal.

Sequence of B. stearothermophilus phosphofructokinase (P00512 whole entry): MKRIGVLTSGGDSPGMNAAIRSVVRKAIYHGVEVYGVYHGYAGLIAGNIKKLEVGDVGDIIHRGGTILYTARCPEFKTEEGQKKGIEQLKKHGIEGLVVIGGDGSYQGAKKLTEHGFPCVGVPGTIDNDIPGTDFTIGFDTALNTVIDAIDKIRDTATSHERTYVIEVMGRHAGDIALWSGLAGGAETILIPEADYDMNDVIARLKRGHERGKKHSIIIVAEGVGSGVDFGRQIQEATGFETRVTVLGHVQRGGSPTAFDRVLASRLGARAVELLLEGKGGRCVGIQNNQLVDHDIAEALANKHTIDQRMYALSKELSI
T2 sequence (P0A6A3 whole entry): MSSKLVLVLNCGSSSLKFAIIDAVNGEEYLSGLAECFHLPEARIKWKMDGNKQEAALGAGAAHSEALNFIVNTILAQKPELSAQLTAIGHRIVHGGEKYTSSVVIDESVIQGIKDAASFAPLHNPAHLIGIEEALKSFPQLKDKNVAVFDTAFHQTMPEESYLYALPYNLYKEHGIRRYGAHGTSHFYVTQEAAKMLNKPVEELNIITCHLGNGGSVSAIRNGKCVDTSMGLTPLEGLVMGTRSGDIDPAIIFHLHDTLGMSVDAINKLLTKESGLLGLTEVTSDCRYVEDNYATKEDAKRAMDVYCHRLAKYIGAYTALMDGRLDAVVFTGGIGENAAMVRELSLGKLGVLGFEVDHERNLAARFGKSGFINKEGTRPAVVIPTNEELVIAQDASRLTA
Sequence of Escherichia coli adenylylated glutamine synthetase (GS12) (P0A9C5 2-469): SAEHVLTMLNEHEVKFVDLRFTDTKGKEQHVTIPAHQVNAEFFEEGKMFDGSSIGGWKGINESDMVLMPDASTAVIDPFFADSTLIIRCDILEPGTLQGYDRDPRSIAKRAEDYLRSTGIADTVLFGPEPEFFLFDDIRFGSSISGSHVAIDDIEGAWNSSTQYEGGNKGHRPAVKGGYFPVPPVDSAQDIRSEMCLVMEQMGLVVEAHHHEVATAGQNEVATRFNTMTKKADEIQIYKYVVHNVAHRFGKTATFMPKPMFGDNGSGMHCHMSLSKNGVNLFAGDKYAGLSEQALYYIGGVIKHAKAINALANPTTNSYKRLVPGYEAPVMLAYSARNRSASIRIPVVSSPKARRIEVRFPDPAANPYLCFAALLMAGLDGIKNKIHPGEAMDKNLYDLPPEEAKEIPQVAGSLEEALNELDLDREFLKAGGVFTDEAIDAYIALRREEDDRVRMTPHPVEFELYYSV
Sequence of Escherichia coli deadenylylated glutamine synthetase (GS0) (P0A9C5 2-469): as above

In the case of `[2H]c1nc2c(N)ncnc2n1C1OC(COP(=O)(O)OP(=O)(O)OP(O)(O)=S)C(O)C1O` (stereo not shown) [C8-D ATPS], on AK1 [1], the “inhibition of AK1” value is “inhibit” and the “inhibition of AK1 compared with ATPS” value was “significantly more inhibition”.

Consider `Nc1ncnc2c1ncn2[C@@H]1O[C@H](COP(=O)(O)OP(=O)(O)OP(=O)(O)O)[C@@H](O)[C@H]1O` [ATP, adenosine triphosphate, reference compound], for which the “reduction in AK1 enzyme activity using ATP compared with ATP deuterated at position C8” value at AK1 [2] (low ATP concentrations) is reported as 50%. The “Hill factor (h)” value in assay [3] (allosteric sigmoidal model) worked out at 1.75; in assay [4] (allosteric sigmoidal model) it was 2.08; in assay [5] it was 3.10; in assay [6], 1.37; in assay [7] it was 1.77. For the same compound, the “fit to kinetic model” value in assay [3] (setting [8]) is “Allosteric sigmoidal”; in assay [3] (tested model: Michaelis-Menton), “Fit ambiguous”; in assay [4] (setting [8]) it was “Allosteric sigmoidal”; in assay [4] (tested model: Michaelis-Menton), “Fit ambiguous”; in assay [5] (setting [8]), “Allosteric sigmoidal”; in assay [5] (tested model: Michaelis-Menton), “Fit ambiguous”. For the same compound, the “fit to kinetic model” value in assay [7] (setting [8]) was “Allosteric sigmoidal”; in assay [7] (tested model: Michaelis-Menton) it was “Fit ambiguous”.

For the compound `Nc1ncnc2c1ncn2[C@@H]1O[C@H](COP(=O)(O)OP(=O)(O)OP(=O)(O)O)[C@@H](O)[C@H]1O` [C8D-ATP], on AK1 [2] (high ATP concentrations), the “reduction in AK1 activity in the presence of deuterated ATP” value is recorded as not below 50%. Further, the KIEvmax in assay [3] (KIE at maximum enzyme activity) was 1; in assay [4] (KIE at maximum enzyme activity), 1; in assay [5] (KIE at maximum enzyme activity), 1; in assay [6] (KIE at maximum enzyme activity), 2; in assay [7] (KIE at maximum enzyme activity), 2. Further, the KIED in assay [3] (asymptote at Vmax) was 1; in assay [3] (low ATP concentrations), more than 5; in assay [4] (asymptote at Vmax) it was 1; in assay [4] (low ATP concentrations) it was more than 5; in assay [5] (asymptote at Vmax), 1; in assay [5] (low ATP concentrations) it was more than 5. Further, the KIED in assay [6] (asymptote at Vmax) was 0.5; in assay [6] (low ATP concentrations) it was more than 5; in assay [7] (asymptote at Vmax), 0.5; in assay [7] (low ATP concentrations), more than 5. The “fit to kinetic model” value in assay [3] (setting [8]) is reported as “Fit ambiguous”; in assay [3] (tested model: Michaelis-Menton), “Michaelis-Menton”; in assay [4] (setting [8]), “Fit ambiguous”; in assay [4] (tested model: Michaelis-Menton) it was “Michaelis-Menton”; in assay [5] (setting [8]) it was “Allosteric sigmoidal”; in assay [5] (tested model: Michaelis-Menton), “Fit ambiguous”. Besides, the “fit to kinetic model” value in assay [6] (setting [8]) was “Allosteric sigmoidal”; in assay [6] (tested model: Michaelis-Menton), “Fit ambiguous”; in assay [7] (setting [8]) it was “Allosteric sigmoidal”; in assay [7] (tested model: Michaelis-Menton) it was “Fit ambiguous”. Moreover, the “Hill factor (h)” value worked out at 4.08 in assay [5], 1.79 in assay [6] and 0.92 in assay [7].

As for `Nc1ncnc2c1ncn2[C@@H]1O[C@H](COP(=O)(O)OP(=O)(O)OP(O)(O)=S)[C@@H](O)[C@H]1O` [ATPS, Adenosine 5′-[γ-thio]triphosphate, reference compound], the “inhibition of AK1” value against AK1 [1] is “inhibit”.
